The values that follow come from US8735388B2, “Heterocyclic compounds with affinity to muscarinic receptors” (Abbvie B. V. A., priority 2007, dated 2014).

Read-outs that look alike come from different tables or passages of the source.

For data set [1], the target named is T1, Muscarine M4 (GPCR-A-MA-ACH M4) (Homo sapiens, UniProt P08173).
T1 construct: expressed in transfected cells; host or cells: CHO cells
T1 sequence (P08173 1-479): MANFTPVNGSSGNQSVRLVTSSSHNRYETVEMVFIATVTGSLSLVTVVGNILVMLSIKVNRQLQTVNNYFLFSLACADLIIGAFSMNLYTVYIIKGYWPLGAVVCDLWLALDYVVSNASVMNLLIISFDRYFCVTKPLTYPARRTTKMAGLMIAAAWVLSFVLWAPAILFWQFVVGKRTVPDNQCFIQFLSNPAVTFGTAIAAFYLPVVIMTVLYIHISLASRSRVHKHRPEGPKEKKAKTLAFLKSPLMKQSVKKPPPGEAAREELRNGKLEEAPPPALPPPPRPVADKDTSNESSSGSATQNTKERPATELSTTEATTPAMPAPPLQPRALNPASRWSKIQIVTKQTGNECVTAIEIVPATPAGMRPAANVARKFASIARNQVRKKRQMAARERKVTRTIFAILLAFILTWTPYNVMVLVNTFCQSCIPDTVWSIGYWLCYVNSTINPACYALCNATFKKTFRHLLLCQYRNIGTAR
In words: Muscarine M4 receptor binding, 3H-4DAMP. To be noted: human M4, CHO cells, ligand 0.2 nM, 60 min/22° C., read-out: RB Musc. M4 3H-DAMP pKi (converted). In outline: (§1)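 Human M1 ([3H]-pirenzepine), M3, and M4 ([3H]-4DAMP or [3H]-oxotremorine) receptor preparations incubated with radioligand and compound, first at 10 μM, then at 10-fold lower concentrations if inhibition exceeded 40%. Bound ligand separated by glass-fibre filtration and counted by scintillation. IC50 from Hill fit, converted to Ki via Cheng-Prusoff, reported as pKi.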

For data set [2], the target named is T1, Muscarine M4 (GPCR-A-MA-ACH M4). In words: Muscarine M4 receptor binding, 3H-Oxotremorine. In outline: as §1
The target is the same in data set [3]. Kind of data set: Muscarine M4 cell-based functional assay (CHO cells, Ca2+ - Aequorin luminescence). In outline:
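CHO cells expressing human M4 were exposed to compound, with Ca2+ response read by aequorin luminescence. Compounds were first tested at 1 μM, then at 10-fold lower concentrations if active; stimulation or inhibition was relative to the reference agonist. EC50/IC50 came from Hill-equation fits.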

In data set [4] the target is T2, Muscarine M1 (GPCR-A-MA-ACH M1) (Homo sapiens, UniProt P11229).
T2 construct: expressed in transfected cells; host or cells: CHO cells
T2 sequence (P11229 1-460): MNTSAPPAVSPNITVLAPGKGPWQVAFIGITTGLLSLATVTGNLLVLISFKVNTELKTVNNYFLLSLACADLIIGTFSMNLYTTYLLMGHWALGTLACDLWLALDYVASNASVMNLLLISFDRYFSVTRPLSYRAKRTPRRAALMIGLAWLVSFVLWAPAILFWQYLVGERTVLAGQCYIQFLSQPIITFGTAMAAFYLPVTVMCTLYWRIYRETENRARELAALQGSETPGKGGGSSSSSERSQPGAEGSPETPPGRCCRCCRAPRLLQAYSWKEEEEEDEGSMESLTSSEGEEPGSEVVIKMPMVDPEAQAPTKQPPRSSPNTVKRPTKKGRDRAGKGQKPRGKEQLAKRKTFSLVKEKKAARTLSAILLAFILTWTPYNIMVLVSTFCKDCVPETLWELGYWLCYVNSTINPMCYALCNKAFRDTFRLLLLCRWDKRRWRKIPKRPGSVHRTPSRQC
Kind of data set: Muscarine M1 receptor binding, 3H-Pirenzepine. To be noted: human M1, CHO cells, ligand 2 nM, 60 min/22° C., read-out: RB Musc. M1 3H-Pirenzepine pKi (converted). An outline of the steps: as §1

Data set [5] concerns the target T2, Muscarine M1 (GPCR-A-MA-ACH M1). Kind of data set: Muscarine M1 cell-based functional assay (CHO cells, Ca2+ - FLIPR Fluorimetry). To be noted: read-out: Cell funct. Musc. M1 Agonism pEC50 (converted).
The target in data set [6] is T3, Muscarine M2 (GPCR-A-MA-ACH M2) (Homo sapiens, UniProt P08172).
T3 construct: expressed in transfected cells; host or cells: CHO cells
T3 sequence (P08172 1-466): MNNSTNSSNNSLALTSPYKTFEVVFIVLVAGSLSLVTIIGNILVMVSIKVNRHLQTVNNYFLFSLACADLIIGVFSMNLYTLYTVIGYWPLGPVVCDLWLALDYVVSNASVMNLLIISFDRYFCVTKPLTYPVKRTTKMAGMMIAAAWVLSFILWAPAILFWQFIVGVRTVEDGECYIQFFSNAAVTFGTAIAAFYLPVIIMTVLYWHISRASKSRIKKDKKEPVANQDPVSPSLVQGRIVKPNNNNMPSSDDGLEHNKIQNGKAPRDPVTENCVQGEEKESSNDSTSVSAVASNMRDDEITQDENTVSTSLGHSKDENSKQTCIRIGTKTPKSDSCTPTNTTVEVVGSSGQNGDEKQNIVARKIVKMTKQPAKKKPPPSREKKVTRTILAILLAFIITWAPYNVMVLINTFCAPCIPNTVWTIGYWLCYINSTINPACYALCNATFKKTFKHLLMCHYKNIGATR
Kind of data set: Muscarine M2 receptor binding.

Data set [7] concerns the target T4, Muscarine M2 (GPCR-A-MA-ACH M2) (Cavia porcellus, UniProt H0VRN8).
T4 construct: from tissue; host or cells: guinea pig left atrium (electrically paced)
T4 sequence (H0VRN8 1-466): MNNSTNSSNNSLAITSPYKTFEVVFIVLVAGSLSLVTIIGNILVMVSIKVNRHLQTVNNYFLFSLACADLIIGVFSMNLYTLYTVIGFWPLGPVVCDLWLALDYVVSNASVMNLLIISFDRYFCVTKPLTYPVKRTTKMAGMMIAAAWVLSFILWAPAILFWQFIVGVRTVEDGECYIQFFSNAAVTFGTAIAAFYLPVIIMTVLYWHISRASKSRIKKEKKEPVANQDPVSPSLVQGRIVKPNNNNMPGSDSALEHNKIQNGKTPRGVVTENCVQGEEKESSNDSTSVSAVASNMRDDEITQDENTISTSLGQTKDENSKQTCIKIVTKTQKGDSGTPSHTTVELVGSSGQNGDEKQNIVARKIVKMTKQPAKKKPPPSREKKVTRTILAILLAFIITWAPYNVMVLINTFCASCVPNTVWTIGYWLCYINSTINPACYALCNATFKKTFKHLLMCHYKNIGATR
In words: Muscarine M2 functional assay, isolated organ (left atrium, electrically paced), agonist and antagonist mode. Also noted: species or system Guinea Pig. To be noted: for EC50: read-out: Cell funct. Musc. M2 Agonism pEC50 (converted).

The target of data set [8] is T5, Muscarine M3 (GPCR-A-MA-ACH M3) (Homo sapiens, UniProt P20309).
T5 construct: expressed in transfected cells; host or cells: CHO cells
T5 sequence (P20309 whole entry): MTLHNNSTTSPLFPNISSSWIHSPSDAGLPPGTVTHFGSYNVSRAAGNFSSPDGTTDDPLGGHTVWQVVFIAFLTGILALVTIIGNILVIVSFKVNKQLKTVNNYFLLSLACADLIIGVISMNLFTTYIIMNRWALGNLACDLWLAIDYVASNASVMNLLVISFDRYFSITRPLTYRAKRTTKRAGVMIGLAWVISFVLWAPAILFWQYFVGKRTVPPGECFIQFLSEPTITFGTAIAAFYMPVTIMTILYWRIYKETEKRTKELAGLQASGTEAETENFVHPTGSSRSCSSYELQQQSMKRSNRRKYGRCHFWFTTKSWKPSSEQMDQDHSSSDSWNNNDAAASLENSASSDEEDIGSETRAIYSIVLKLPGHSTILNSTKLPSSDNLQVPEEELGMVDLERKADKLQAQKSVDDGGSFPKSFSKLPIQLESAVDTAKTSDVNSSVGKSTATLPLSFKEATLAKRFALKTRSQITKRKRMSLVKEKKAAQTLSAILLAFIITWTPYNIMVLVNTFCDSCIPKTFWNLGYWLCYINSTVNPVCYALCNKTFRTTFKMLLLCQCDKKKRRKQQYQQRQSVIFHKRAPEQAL
Kind of data set: Muscarine M3 receptor binding.

Data set [9] concerns the target T6, Muscarine M3 (GPCR-A-MA-ACH M3) (Cavia porcellus, UniProt H0W1Z3).
T6 construct: from tissue; host or cells: guinea pig ileum
Kind of data set: Muscarine M3 functional assay, isolated organ (ileum), agonist and antagonist mode. Further details: species or system Guinea Pig. To be noted: for EC50: read-out: Cell funct. Musc. M3 Agonism pEC50 (converted).

The mark [10] stands for this setting: human M4, CHO cells, receptor binding, ligand 6 nM, 30 min/25° C., read-out: RB Musc. M4 3H-Oxotremorine pKi (converted).
The mark [11] stands for this setting: human M4, CHO cells, agonist mode, reference agonist oxotremorine, read-out: Cell funct. Musc. M4 Agonism pEC50 (converted).
The mark [12] stands for this setting: human M1, CHO cells, agonist mode, reference agonist acetylcholine.
Setting [13] is: human M2, CHO cells, receptor binding.
Where [14] appears, read: read-out: Cell funct. Musc. M2 Antagonism pA2 (converted).
[15] abbreviates: human M3, CHO cells, receptor binding.

Broadly, the melting point is the temperature of the solid-liquid transition.

T6 sequence (H0W1Z3 1-590): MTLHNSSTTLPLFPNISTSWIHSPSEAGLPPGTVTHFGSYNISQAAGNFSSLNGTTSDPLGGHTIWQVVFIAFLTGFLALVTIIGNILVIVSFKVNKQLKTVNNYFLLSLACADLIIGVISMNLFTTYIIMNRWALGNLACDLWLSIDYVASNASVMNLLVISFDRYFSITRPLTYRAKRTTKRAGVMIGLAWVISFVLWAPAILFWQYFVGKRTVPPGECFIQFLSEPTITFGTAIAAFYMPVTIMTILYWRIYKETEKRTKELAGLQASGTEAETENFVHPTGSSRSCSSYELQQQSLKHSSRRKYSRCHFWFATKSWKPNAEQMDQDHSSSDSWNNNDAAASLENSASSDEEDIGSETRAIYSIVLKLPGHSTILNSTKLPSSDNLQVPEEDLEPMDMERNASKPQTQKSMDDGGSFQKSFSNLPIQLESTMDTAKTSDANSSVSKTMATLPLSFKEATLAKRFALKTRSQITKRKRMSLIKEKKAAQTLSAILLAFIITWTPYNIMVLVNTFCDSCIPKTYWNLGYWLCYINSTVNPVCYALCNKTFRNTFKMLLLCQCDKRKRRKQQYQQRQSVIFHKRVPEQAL

Regarding `CCCCSc1c[nH]nc1C1=CCCN(C)C1` [Compound 22F, 3-(4-Butylsulfanyl-1H-pyrazol-3-yl)-1,2,5,6-tetrahydro-1-methylpyridine], the melting point lay within 120 to 121 °C. Besides, in data set [1], the Ki was 0.0398 µM. In addition, the Ki in data set [2] (setting [10]) was 0.0631 µM. Further, the EC50 in [3] (setting [11]) was 0.126 µM. In addition, the Ki in data set [4] was 0.316 µM. For the same molecule, in data set [5] (setting [12]), the EC50 was 0.2 µM.
As to `CCSc1c[nH]nc1C1=CCCN(C)C1` [Compound 22D, 3-(4-Ethylsulfanyl-1H-pyrazol-3-yl)-1,2,5,6-tetrahydro-1-methylpyridine], the melting point was 95 to 97 °C. In addition, the Ki in data set [1] was 0.398 µM. Besides, the Ki in [2] (setting [10]) is 0.316 µM. In addition, in data set [3] (setting [11]), the EC50 was over 10 µM. Besides, in data set [4], the Ki was 1.58 µM.
Regarding `CN1CCC=C(c2n[nH]cc2SCCCCCSc2c[nH]nc2C2=CCCN(C)C2)C1` [Compound 22C], the Ki in [1] was 0.0631 µM; in [2] (setting [10]), 0.158 µM; in [4], 0.251 µM; in data set [6] (setting [13]), 0.398 µM; in [8] (setting [15]) it was 0.0316 µM. For the same molecule, the EC50 in [3] (setting [11]) was over 10 µM; in [5] (setting [12]) it was over 1 µM; in [7], over 1 µM; in data set [9], over 1 µM. Further, the Kb in data set [7] (setting [14]) and in data set [9] was over 1 µM throughout.
Molecule `CCCSc1c[nH]nc1C1=CCCN(C)C1` [Compound 22E, 3-(4-Propylsulfanyl-1H-pyrazol-3-yl)-1,2,5,6-tetrahydro-1-methylpyridine] had a melting point of 111 °C. In addition, the Ki in [1] was 0.316 µM. In data set [2] (setting [10]), the Ki was 0.1 µM. Besides, the EC50 in data set [3] (setting [11]) was over 10 µM. In addition, the Ki in data set [4] is 0.398 µM.
With `CCCCCCOc1c[nH]nc1C1=CCCN(C)C1` [Compound 33B, 3-(4-Hexyloxy-1H-pyrazol-3-yl]-1,2,5,6-tetrahydro-1-methylpyridine], the Ki in [1] is 0.316 µM; in data set [2] (setting [10]), 0.2 µM; in [4] it was 1 µM; in data set [6] (setting [13]), 1.26 µM; in data set [8] (setting [15]), 0.398 µM. The EC50 in data set [3] (setting [11]) is 0.501 µM; in data set [5] (setting [12]), 0.1 µM; in data set [7] it was over 1 µM; in [9], over 1 µM. The Kb in data set [7] (setting [14]) and in [9] was over 1 µM in each case.
`CSc1c[nH]nc1C1CN2CCC1CC2` (centres unmarked) [Compound 49C, 3-(4-Methylsulfanyl-1H-pyrazol-3-yl)-1-azabicyclo[2.2.2]octane]: the melting point was 145 to 147 °C. Moreover, the Ki in [1] was 0.126 µM. Besides, the Ki in data set [2] is 0.126 µM. The EC50 in [3] is 0.501 µM. Moreover, the Ki in data set [4] was 1 µM. The EC50 in [5] is 0.0794 µM.
Regarding `CCCOc1c[nH]nc1C1CN2CCC1CC2` (centres unmarked) [Compound 52B, 3-(4-Propoxy-1H-pyrazol-3-yl)-1-azabicyclo[2.2.2]octane], the Ki in data set [1] is 0.126 µM; in [2] it was 0.0631 µM; in data set [4], 0.631 µM; in [6], 1.26 µM; in [8] it was 0.316 µM. The EC50 was 0.1 µM in [3], 0.00794 µM in [5], over 1 µM in data set [7] and over 1 µM in data set [9]. Moreover, the Kb in data set [7] was 0.0251 µM; in data set [9], over 1 µM.
Consider `CCCCCSc1nc[nH]c1C1=CCCN(C)C1` [Compound 76A, 3-(5-Pentylsulfanyl-3H-imidazol-4-yl)-1,2,5,6-tetrahydro-1-methylpyridine], for which the Ki was 0.316 µM in [1]; 0.631 µM in [2] (setting [10]); 2.51 µM in [4]; 5.01 µM in [6] (setting [13]); 0.794 µM in [8] (setting [15]). In addition, the EC50 in data set [3] (setting [11]) is 7.94 µM; in data set [5] (setting [12]) it was 0.126 µM; in data set [7], over 1 µM; in [9], over 1 µM. In addition, the Kb in data set [7] (setting [14]) and in data set [9] was over 1 µM in each case.
Take `CCCCSc1c[nH]nc1C1CN2CCC1CC2` (centres unmarked) [Compound 49A, 3-(4-Butylsulfanyl-1H-pyrazol-3-yl)-1-azabicyclo[2.2.2]octane]: the melting point was 162 to 164 °C. The Ki in data set [1] was 0.0158 µM. In data set [2], this molecule had a Ki of 0.0251 µM. Further, the EC50 in [3] was 0.0398 µM. In addition, in [4], the Ki is 0.126 µM. Also, the EC50 in [5] is 0.01 µM.
`CC(C)CCSc1c[nH]nc1C1CN2CCC1CC2` (centres unmarked) [Compound 49H, 3-[4-(3-Methyl-butylsulfanyl)-1H-pyrazol-3-yl]-1-azabicyclo[2.2.2]octane] displayed a melting point of 157 to 159 °C. Further, the Ki in data set [1] was 0.0398 µM. In addition, the Ki in data set [2] was 0.0316 µM. Further, the EC50 in [3] is over 10 µM. Besides, in [4], the Ki is 0.158 µM. For the same molecule, in data set [5], the EC50 was 0.0501 µM.
`CSc1c[nH]nc1C1=CCCN(C)C1` [Compound 22A, 3-(4-Methylsulfanyl-1H-pyrazol-3-yl)-1,2,5,6-tetrahydro-1-methylpyridine] yielded a melting point of 131.5 °C. Moreover, in [1], the Ki was 0.398 µM. Also, in data set [2] (setting [10]), the Ki was 0.251 µM. Besides, the EC50 in data set [3] (setting [11]) is over 10 µM. For the same molecule, in [4], the Ki was 1.58 µM.
